Measurements published in US20220088016A1, “CANCER TREATMENT USING MULTI-TARGETED KINASE INHIBITOR IN COMBINATION OF PROTEIN KINASE BIOMARKERS” (ZHEJIANG CROWNMAB BIOTECH CO. LTD., priority 2019, published 2022).

Legend:
Experiment in all cases: Kinase profiling
Format in all cases: binding
Settings in all cases: read-out: % Ctrl @ 1000 nM
FER = FER (Homo sapiens, UniProt P16591)
ICK = ICK (Homo sapiens, UniProt Q9UPZ9)
PFCDPK1 (P.falciparum) = PFCDPK1 (P.falciparum) (Plasmodium falciparum, UniProt P62344)
DAPK3 = DAPK3 (Homo sapiens, UniProt O43293)
KIT (V559D, V654A) = KIT (V559D, V654A) (Homo sapiens, UniProt P10721, V559D/V654A)
FGFR1 = FGFR1 (Homo sapiens, UniProt P11362)
PIM3 = PIM3 (Homo sapiens, UniProt Q86V86)
EPHA4 = EPHA4 (Homo sapiens, UniProt P54764)
PRKCD = PRKCD (Homo sapiens, UniProt Q05655)
RIOK1 = RIOK1 (Homo sapiens, UniProt Q9BRS2)
Sequence of RIOK1 (Q9BRS2 whole entry): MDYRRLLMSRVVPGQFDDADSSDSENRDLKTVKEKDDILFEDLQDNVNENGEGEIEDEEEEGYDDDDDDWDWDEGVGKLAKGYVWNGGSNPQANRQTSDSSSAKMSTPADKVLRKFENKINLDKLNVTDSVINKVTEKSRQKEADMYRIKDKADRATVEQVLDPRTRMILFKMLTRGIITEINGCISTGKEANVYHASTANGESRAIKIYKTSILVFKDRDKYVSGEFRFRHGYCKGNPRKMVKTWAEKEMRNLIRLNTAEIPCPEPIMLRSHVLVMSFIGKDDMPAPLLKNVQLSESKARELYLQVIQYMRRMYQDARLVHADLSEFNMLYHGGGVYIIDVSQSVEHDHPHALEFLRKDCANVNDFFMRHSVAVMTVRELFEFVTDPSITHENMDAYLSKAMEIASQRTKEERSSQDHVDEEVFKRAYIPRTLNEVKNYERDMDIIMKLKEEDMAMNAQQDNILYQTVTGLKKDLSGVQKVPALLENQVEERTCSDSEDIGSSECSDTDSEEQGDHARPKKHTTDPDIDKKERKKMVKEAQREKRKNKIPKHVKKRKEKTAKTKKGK

KIT (V559D) = KIT (V559D) (Homo sapiens, UniProt P10721, V559D)
PIK3CA (I800L) = PIK3CA (I800L) (Homo sapiens, UniProt P42336, I800L)
MLK2 = target: T1, MLK2 (Homo sapiens, UniProt Q02779)
T1 construct: T7 phage fusion (stated for most kinases of the panel only); made in house; host or cells: T7 phage in E. coli (BL21-derived) or HEK-293 cells

PRKCI = PRKCI (Homo sapiens, UniProt P41743)
PIK3CA (M1043I) = PIK3CA (M1043I) (Homo sapiens, UniProt P42336, M1043I)
PIK4CB = PIK4CB (Homo sapiens, UniProt Q9UBF8)
WNK1 = WNK1 (Homo sapiens, UniProt Q9H4A3)
BRSK2 = BRSK2 (Homo sapiens, UniProt Q8IWQ3)
GAK = GAK (Homo sapiens, UniProt O14976)
INSR = INSR (Homo sapiens, UniProt P06213)
Sequence of INSR (P06213 28-1382): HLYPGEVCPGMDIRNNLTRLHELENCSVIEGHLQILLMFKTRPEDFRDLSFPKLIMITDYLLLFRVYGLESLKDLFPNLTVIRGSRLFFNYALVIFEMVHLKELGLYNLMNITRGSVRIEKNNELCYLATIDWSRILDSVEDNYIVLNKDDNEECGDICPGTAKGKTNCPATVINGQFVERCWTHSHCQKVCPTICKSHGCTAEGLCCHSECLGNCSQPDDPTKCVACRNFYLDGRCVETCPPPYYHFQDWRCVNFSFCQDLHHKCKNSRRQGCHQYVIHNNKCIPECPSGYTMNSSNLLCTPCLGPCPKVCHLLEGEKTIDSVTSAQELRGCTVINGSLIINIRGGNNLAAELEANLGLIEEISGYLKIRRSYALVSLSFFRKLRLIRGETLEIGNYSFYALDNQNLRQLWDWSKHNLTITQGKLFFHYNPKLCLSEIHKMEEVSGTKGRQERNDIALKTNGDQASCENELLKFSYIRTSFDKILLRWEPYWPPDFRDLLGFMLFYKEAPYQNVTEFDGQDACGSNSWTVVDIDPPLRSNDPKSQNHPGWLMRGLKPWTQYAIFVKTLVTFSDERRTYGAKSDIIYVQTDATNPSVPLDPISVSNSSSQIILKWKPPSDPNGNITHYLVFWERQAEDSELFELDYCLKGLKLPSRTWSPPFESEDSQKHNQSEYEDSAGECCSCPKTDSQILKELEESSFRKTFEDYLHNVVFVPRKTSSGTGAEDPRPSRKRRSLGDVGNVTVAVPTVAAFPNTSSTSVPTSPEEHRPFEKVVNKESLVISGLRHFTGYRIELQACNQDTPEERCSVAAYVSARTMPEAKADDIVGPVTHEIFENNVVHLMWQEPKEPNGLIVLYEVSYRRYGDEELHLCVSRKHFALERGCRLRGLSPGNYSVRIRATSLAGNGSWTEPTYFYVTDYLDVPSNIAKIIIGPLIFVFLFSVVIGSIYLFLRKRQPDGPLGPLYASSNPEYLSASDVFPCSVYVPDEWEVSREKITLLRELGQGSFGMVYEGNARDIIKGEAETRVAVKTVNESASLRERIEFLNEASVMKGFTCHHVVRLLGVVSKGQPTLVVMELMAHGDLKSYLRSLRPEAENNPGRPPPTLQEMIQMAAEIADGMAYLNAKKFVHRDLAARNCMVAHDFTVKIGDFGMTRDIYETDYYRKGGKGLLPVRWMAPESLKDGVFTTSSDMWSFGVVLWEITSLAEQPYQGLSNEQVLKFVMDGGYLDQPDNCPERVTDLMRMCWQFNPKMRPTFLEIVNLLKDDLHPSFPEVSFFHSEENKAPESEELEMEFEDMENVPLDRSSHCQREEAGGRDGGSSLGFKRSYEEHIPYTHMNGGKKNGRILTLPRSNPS

TBK1 = TBK1 (Homo sapiens, UniProt Q9UHD2)
CLK3 = CLK3 (Homo sapiens, UniProt P49761)
Sequence of CLK3 (P49761 whole entry): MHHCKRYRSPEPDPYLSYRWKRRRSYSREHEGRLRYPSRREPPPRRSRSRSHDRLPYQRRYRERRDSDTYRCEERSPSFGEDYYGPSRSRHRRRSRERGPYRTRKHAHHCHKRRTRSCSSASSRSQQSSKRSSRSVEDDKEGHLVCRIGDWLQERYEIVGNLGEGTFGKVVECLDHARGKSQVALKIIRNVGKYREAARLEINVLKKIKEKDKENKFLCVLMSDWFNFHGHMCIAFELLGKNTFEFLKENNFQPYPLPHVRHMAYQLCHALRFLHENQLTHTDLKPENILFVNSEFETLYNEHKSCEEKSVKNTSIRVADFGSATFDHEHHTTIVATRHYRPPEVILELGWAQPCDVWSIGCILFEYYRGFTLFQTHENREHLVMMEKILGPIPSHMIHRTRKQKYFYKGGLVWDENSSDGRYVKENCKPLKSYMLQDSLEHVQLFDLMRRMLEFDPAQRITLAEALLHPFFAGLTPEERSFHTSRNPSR

MAP4K3 = MAP4K3 (Homo sapiens, UniProt Q8IVH8)
CTK = CTK (Homo sapiens, UniProt P42679)
CAMK1D = CAMK1D (Homo sapiens, UniProt Q8IU85)
PLK2 = PLK2 (Homo sapiens, UniProt Q9NYY3)
RIPK4 = RIPK4 (Homo sapiens, UniProt P57078)
CLK1 = CLK1 (Homo sapiens, UniProt P49759)
Sequence of CLK1 (P49759 whole entry): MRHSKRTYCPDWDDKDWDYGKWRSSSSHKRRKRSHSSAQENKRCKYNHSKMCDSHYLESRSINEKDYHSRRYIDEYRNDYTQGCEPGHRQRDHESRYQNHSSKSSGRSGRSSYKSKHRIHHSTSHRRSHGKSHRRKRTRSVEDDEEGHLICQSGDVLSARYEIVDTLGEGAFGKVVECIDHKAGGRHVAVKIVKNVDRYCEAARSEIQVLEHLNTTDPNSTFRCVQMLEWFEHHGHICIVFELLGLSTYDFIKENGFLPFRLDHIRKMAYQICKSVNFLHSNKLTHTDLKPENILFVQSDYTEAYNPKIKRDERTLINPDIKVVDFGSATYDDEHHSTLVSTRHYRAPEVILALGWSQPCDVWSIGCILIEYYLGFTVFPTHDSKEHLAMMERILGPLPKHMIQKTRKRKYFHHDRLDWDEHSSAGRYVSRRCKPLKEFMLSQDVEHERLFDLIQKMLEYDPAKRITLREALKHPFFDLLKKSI

GSK3B = GSK3B (Homo sapiens, UniProt P49841)
DLK = DLK (Homo sapiens, UniProt Q12852)
Sequence of DLK (Q12852 whole entry): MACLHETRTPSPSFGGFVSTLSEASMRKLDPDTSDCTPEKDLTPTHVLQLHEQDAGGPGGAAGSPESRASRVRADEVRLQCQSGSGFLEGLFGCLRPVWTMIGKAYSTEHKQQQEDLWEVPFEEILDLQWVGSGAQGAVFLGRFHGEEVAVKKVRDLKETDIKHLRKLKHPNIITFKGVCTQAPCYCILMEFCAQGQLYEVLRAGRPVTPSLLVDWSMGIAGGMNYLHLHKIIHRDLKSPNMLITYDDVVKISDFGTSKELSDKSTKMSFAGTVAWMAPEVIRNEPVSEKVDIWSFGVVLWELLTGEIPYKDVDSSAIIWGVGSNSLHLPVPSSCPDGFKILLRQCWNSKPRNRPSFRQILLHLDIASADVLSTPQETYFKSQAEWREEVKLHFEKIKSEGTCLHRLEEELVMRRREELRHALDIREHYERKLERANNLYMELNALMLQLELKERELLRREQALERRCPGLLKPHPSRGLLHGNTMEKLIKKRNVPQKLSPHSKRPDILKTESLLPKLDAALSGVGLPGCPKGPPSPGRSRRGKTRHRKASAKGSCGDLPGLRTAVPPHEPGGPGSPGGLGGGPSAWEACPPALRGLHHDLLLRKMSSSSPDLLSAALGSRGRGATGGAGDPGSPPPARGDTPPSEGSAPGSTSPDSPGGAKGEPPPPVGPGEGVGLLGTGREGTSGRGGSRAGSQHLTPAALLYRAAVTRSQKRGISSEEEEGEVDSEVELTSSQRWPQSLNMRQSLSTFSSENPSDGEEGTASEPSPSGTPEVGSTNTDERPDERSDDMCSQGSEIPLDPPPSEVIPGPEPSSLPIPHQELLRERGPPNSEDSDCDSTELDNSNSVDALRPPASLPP

WEE2 = WEE2 (Homo sapiens, UniProt P0C1S8)
STK35 = STK35 (Homo sapiens, UniProt Q8TDR2)
PIK3CA = PIK3CA (Homo sapiens, UniProt P42336)
LCK = LCK (Homo sapiens, UniProt P06239)
CDC2L2 = CDC2L2 (Homo sapiens, UniProt Q9UQ88)
KIT-autoinhibited = KIT-autoinhibited (Homo sapiens, UniProt P10721)
CHEK2 = CHEK2 (Homo sapiens, UniProt O96017)
SRPK2 = SRPK2 (Homo sapiens, UniProt P78362)
EIF2AK1 = EIF2AK1 (Homo sapiens, UniProt Q9BQI3)
Sequence of EIF2AK1 (Q9BQI3 whole entry): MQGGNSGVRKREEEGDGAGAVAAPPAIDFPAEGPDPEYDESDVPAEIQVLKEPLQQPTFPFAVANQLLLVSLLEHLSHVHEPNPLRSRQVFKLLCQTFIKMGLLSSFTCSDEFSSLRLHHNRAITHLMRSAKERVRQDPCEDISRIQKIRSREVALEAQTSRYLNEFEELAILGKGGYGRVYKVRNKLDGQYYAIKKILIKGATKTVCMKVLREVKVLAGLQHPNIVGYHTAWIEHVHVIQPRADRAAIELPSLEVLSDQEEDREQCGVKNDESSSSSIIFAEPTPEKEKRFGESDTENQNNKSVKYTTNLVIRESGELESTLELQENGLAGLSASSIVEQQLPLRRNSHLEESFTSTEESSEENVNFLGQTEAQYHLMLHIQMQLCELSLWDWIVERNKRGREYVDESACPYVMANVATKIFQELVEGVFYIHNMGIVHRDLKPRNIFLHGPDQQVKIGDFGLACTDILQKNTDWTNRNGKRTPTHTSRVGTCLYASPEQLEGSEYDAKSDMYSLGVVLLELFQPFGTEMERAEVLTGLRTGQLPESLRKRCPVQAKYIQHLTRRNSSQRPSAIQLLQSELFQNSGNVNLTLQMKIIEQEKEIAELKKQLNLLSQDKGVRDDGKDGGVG

CDK4-cyclinD1 = CDK4-cyclinD1 (Homo sapiens, UniProt P11802)

Sequence of ICK (Q9UPZ9 whole entry): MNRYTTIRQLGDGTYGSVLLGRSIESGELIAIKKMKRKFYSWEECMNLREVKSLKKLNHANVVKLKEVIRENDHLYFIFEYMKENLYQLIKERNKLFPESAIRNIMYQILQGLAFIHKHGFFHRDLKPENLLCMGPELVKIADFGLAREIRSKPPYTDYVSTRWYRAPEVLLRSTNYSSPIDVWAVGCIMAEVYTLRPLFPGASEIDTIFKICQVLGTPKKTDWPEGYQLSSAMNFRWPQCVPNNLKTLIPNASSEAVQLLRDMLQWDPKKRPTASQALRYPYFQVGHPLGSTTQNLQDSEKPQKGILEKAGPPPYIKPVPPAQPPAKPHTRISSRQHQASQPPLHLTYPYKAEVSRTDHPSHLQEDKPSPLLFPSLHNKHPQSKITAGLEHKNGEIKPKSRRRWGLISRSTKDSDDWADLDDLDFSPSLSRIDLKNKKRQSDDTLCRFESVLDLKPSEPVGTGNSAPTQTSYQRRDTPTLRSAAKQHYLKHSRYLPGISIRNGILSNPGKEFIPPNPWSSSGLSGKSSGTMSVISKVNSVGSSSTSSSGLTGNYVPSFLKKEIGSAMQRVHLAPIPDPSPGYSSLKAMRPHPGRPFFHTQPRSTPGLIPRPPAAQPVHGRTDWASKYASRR

Cc1cc(Oc2cc(NC(=O)C3CC3)ncn2)ccc1NC(=O)Nc1ccc(Cl)c(C(F)(F)F)c1 [CBT-102]
remaining activity at 1 µM (FER): 73%
remaining activity at 1 µM (ICK): 100%
remaining activity at 1 µM (PFCDPK1 (P.falciparum)): 53%
remaining activity at 1 µM (DAPK3): 96%
remaining activity at 1 µM (KIT (V559D, V654A)): 2.8%
remaining activity at 1 µM (FGFR1): 61%
remaining activity at 1 µM (PIM3): 98%
remaining activity at 1 µM (EPHA4): 49%
remaining activity at 1 µM (PRKCD): 100%
remaining activity at 1 µM (RIOK1): 54%
remaining activity at 1 µM (KIT (V559D)): 0%
remaining activity at 1 µM (PIK3CA (I800L)): 91%
remaining activity at 1 µM (MLK2): 99%
remaining activity at 1 µM (PRKCI): 74%
remaining activity at 1 µM (PIK3CA (M1043I)): 100%
remaining activity at 1 µM (PIK4CB): 100%
remaining activity at 1 µM (WNK1): 87%
remaining activity at 1 µM (BRSK2): 100%
remaining activity at 1 µM (GAK): 100%
remaining activity at 1 µM (INSR): 100%
remaining activity at 1 µM (TBK1): 98%
remaining activity at 1 µM (CLK3): 100%
remaining activity at 1 µM (MAP4K3): 19%
remaining activity at 1 µM (CTK): 74%
remaining activity at 1 µM (CAMK1D): 81%
remaining activity at 1 µM (PLK2): 93%
remaining activity at 1 µM (RIPK4): 100%
remaining activity at 1 µM (CLK1): 98%
remaining activity at 1 µM (GSK3B): 42%
remaining activity at 1 µM (DLK): 89%
remaining activity at 1 µM (WEE2): 97%
remaining activity at 1 µM (STK35): 93%
remaining activity at 1 µM (PIK3CA): 100%
remaining activity at 1 µM (LCK): 15%
remaining activity at 1 µM (CDC2L2): 22%
remaining activity at 1 µM (KIT-autoinhibited): 58%
remaining activity at 1 µM (CHEK2): 100%
remaining activity at 1 µM (SRPK2): 100%
remaining activity at 1 µM (EIF2AK1): 99%
remaining activity at 1 µM (CDK4-cyclinD1): 99%
